One data set concerns the target Human KLK1 (Homo sapiens (Human), UniProt P06870). Description: Determination of the IC50 for KLK1. Type of data set: biochemical. The conditions noted are these: 37° C., fluorogenic substrate H-DVal-Leu-Arg-AFC. The gist of the method: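 KLK1 inhibition was measured in vitro following standard published methods. Human KLK1 (Callbiochem) was incubated at 37° C. with the fluorogenic substrate H-DVal-Leu-Arg-AFC in the presence of a range of test compound concentrations. Residual enzyme activity, taken as the initial reaction rate, was followed by the change in optical absorbance at 410 nm, and IC50 values were derived.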

Data set [1] in a line: Pharmacokinetics following a single oral dose in rats. The data set is classed as in vivo. The conditions noted are these: rat, nominal 10 mg/kg, male Sprague-Dawley rats, plasma. As to the method:
Pharmacokinetic studies of selected examples were performed to assess the pharmacokinetics following a single oral dose in male Sprague-Dawley rats. Typically, either two or three rats were given a single po dose of 5 mL/kg of a nominal 2 mg/mL (10 mg/kg) composition of test compound in either 5% cremophor:5% ethanol:90% phosphate buffered saline or 20% Labrasol:80% water. Following dosing, blood samples were collected over a period of 8 hours. Typical sample times include 5, 15 and 30 minutes then 1, 2, 4, 6 and 8 hours. Following collection, blood samples were centrifuged and the plasma fraction analysed for concentration of test compound by LCMS.

The target of the next data set is Human plasma kallikrein (Homo sapiens (Human), UniProt P03952). Description: Determination of the IC50 for Plasma Kallikrein. Type of data set: biochemical. To be noted: 37° C., fluorogenic substrate H-DPro-Phe-Arg-AFC; read-out: IC50 (human PKal). How it is done:
Human plasma kallikrein (Protogen) was incubated at 37° C. with the fluorogenic substrate H-DPro-Phe-Arg-AFC and various concentrations of the test compound. Residual enzyme activity (initial rate of reaction) was determined by measuring the change in optical absorbance at 410 nm and the IC50 value for the test compound was determined.

Another data set concerns the target Factor XIIa (Homo sapiens (Human), UniProt P00748). Nature of the data set: Determination of Enzyme Selectivity: Factor XIIa. Type of data set: biochemical. The conditions noted are these: substrate at Km concentration. How it is done:
(§1) Human serine protease enzymes plasmin, thrombin, trypsin, Factor Xa and Factor XIIa were assayed for enzymatic activity using an appropriate fluorogenic substrate. Protease activity was measured by monitoring the accumulation of liberated fluorescence from the substrate over 5 minutes. The linear rate of fluorescence increase per minute was expressed as percentage (%) activity. The Km for the cleavage of each substrate was determined by standard transformation of the Michaelis-Menten equation.

The target of the next data set is plasmin (Homo sapiens (Human), UniProt P00747). Description: Determination of Enzyme Selectivity: plasmin. Type of data set: biochemical. To be noted: substrate at Km concentration. As to the method: as §1
The target in the next data set is trypsin. Description: Determination of Enzyme Selectivity: trypsin. The data set is classed as biochemical, Human. To be noted: substrate at Km concentration. How it is done:
as §1

In another data set the target is thrombin (Homo sapiens (Human), UniProt P00734). Nature of the data set: Determination of Enzyme Selectivity: thrombin. Type of data set: biochemical. The conditions noted are these: substrate at Km concentration. As to the method: as §1

Sequence of Human KLK1 (P06870 25-262): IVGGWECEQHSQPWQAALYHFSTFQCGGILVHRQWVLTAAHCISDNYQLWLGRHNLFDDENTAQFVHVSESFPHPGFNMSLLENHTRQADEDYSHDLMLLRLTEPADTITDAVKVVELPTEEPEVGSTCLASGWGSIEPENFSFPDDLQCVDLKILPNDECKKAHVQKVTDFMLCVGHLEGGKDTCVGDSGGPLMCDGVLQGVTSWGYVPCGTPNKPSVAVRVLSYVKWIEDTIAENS
Sequence of Human plasma kallikrein (P03952 391-638): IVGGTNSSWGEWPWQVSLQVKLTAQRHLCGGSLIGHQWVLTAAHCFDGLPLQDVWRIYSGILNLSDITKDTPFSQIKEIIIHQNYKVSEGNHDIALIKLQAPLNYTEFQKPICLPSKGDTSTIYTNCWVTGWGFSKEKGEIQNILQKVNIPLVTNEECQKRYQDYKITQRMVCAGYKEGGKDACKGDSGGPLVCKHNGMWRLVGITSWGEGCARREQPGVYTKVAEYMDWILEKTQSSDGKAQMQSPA
Sequence of Human plasma kallikrein (P03952 20-390 partner): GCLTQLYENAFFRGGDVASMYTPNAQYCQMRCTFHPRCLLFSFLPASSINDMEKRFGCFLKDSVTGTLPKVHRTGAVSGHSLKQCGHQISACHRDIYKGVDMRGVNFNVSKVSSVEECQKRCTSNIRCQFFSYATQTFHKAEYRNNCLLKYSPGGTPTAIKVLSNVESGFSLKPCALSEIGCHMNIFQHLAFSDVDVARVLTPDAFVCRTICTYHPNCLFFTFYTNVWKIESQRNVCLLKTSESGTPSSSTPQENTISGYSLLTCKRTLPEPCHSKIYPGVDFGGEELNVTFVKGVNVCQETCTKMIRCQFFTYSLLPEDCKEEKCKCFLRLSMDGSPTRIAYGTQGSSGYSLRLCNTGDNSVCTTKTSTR
Sequence of plasmin (P00747 581-810): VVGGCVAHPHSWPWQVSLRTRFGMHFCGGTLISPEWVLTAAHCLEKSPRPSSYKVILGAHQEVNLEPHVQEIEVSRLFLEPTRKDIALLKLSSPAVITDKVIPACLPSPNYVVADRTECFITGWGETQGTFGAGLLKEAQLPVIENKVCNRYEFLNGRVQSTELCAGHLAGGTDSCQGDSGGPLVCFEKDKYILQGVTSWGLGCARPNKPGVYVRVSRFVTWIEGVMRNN
Sequence of plasmin (P00747 97-580 partner): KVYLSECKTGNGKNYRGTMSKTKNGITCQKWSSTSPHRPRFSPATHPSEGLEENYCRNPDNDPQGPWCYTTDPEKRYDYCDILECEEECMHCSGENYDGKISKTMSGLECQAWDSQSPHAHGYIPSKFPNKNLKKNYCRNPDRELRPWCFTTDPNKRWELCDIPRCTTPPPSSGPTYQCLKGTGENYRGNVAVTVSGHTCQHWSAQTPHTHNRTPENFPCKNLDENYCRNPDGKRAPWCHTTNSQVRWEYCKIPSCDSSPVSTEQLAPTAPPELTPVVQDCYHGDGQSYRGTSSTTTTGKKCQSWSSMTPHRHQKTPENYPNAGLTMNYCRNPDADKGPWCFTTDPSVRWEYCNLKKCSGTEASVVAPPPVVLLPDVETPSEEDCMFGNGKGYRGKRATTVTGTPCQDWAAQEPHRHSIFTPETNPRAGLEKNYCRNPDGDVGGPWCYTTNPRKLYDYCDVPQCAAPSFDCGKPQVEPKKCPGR
Sequence of Factor XIIa (P00748 373-615): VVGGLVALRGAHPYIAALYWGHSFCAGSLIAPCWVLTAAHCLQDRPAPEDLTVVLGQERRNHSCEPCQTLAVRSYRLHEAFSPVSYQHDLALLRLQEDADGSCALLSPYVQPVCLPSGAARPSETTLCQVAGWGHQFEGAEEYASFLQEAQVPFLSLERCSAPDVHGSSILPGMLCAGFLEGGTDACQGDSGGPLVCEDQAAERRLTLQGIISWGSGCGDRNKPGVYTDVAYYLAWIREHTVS

On Human KLK1, `Cc1cc(C(=O)NCc2ccc(CN)nc2)c(C)n1Cc1csc(-c2ccccc2)n1` [Example 43, 2,5-Dimethyl-1-(2-phenyl-thiazol-4-ylmethyl)-1H-pyrrole-3-carboxylic acid (6-aminomethyl-pyridin-3-ylmethyl)-amide] displayed an IC50 above 10 µM. For the same molecule, in data set [1], the concentration peaked (Cmax) at 71 ng/mL and the Tmax is 4 h. Besides, on Human plasma kallikrein, the IC50 is 0.196 µM.

`Cc1cnn(Cc2ccc(Cn3c(C)cc(C(=O)NCc4c(C)cc(CN)cc4C)c3C)cc2)c1` [Example 101, 2,5-Dimethyl-1-[4-(4-methyl-pyrazol-1-ylmethyl)-benzyl]-1H-pyrrole-3-carboxylic acid 4-aminomethyl-2,6-dimethyl-benzylamide]: the IC50 at Human KLK1 is 6.31 µM; at Factor XIIa, above 10 µM; on Human plasma kallikrein, 0.004 µM. This molecule gave a Cmax in data set [1] of 67 ng/mL. For the same molecule, in data set [1], the Tmax was 5 h.

Regarding `Cc1cc(C(=O)NCc2ccc(CN)cc2)c(C)n1Cc1csc(-c2ccccc2)n1` [Example 1, 2,5-Dimethyl-1-(2-phenyl-thiazol-4-ylmethyl)-1H-pyrrole-3-carboxylic acid 4-aminomethyl-benzylamide], the IC50 on Human KLK1 is above 10 µM; against plasmin it was above 40 µM; on Factor XIIa, above 10 µM; at trypsin, above 40 µM; on thrombin, above 40 µM; at Human plasma kallikrein, 0.063 µM. This molecule also showed a Cmax in data set [1] of 81 ng/mL. Moreover, the Tmax in data set [1] is 4.67 h.

`Cc1cc(C(=O)NCc2ccc(CN)c(F)c2)c(C)n1Cc1csc(-c2ccccc2)n1` [Example 45, 2,5-Dimethyl-1-(2-phenyl-thiazol-4-ylmethyl)-1H-pyrrole-3-carboxylic acid 4-aminomethyl-3-fluoro-benzylamide] yielded an IC50 on Human KLK1 above 10 µM. For the same molecule, in data set [1], the Cmax was found to be 228 ng/mL and the Tmax was 2.58 h. In addition, the IC50 at Human plasma kallikrein came out at 0.135 µM.

On to `Cc1cc(CN)ccc1CNC(=O)c1cc(C)n(Cc2csc(-c3ccccc3)n2)c1C` [Example 2, 2,5-Dimethyl-1-(2-phenyl-thiazol-4-ylmethyl)-1H-pyrrole-3-carboxylic acid 4-aminomethyl-2-methyl-benzylamide], for which the IC50 on Human KLK1 is above 10 µM; on plasmin, 24.8 µM; against Factor XIIa, above 10 µM; against trypsin, above 40 µM; on thrombin, above 40 µM; at Human plasma kallikrein it was 0.015 µM. The molecule also displayed a Cmax in data set [1] of 59 ng/mL. Besides, the Tmax in data set [1] was 5 h.

As for `Cc1cc(C(=O)NCc2ccc(CN)cc2)c(C)n1Cc1csc(-c2ccsc2)n1` [Example 37, 2,5-Dimethyl-1-(2-thiophen-3-yl-thiazol-4-ylmethyl)-1H-pyrrole-3-carboxylic acid 4-aminomethyl-benzylamide], the IC50 on Human KLK1 was above 10 µM. Also, in data set [1], the Cmax was determined as 171 ng/mL and the Tmax was 3.5 h. For the same molecule, the IC50 on Human plasma kallikrein was 0.17 µM.

Regarding `Cc1ccc2cc(Cn3ncc(C(=O)NCc4c(C)cc(CN)cc4C)c3C(F)(F)F)ccc2n1` [Example 127, 1-(2-Methyl-quinolin-6-ylmethyl)-5-trifluoromethyl-1H-pyrazole-4-carboxylic acid 4-aminomethyl-2,6-dimethyl-benzylamide], the values for the 50% inhibitory concentration (IC50) against Human KLK1 and on Factor XIIa were above 10 µM and above 40 µM, respectively.

Consider `Cc1ccc2cc(Cn3cc(C(=O)NCc4c(C)cc(CN)cc4C)c(C(F)(F)F)n3)ccc2n1` [Example 126, 1-(2-Methyl-quinolin-6-ylmethyl)-3-trifluoromethyl-1H-pyrazole-4-carboxylic acid 4-aminomethyl-2,6-dimethyl-benzylamide], for which the IC50 against Human KLK1 was 0.566 µM; against Factor XIIa, above 40 µM.

Take `NCc1ccc(CNC(=O)c2cn(Cc3csc(-c4ccccc4)n3)nc2C(F)(F)F)cc1` [Example 83, 1-(2-Phenyl-thiazol-4-ylmethyl)-3-trifluoromethyl-1H-pyrazole-4-carboxylic acid 4-aminomethyl-benzylamide]: the IC50 at Human KLK1 was above 10 µM; at plasmin it was 27.2 µM; at Factor XIIa, above 8.51 µM; against trypsin, 26.6 µM; at thrombin, above 40 µM; on Human plasma kallikrein, 0.452 µM.

For the molecule `Cc1ccc2cc(Cn3ncc(C(=O)NCc4c(C)cc(CN)cc4C)c3C)ccc2n1` [Example 125, 5-Methyl-1-(2-methyl-quinolin-6-ylmethyl)-1H-pyrazole-4-carboxylic acid 4-aminomethyl-2,6-dimethyl-benzylamide], the results for the IC50 against Human KLK1, against Factor XIIa and on Human plasma kallikrein were 0.657 µM, above 40 µM and 0.003 µM, respectively.

For the molecule `Cc1ccc2cc(Cn3cc(C(=O)NCc4c(C)cc(CN)cc4C)c(C)n3)ccc2n1` [Example 124, 3-Methyl-1-(2-methyl-quinolin-6-ylmethyl)-1H-pyrazole-4-carboxylic acid 4-aminomethyl-2,6-dimethyl-benzylamide], the IC50 was 0.301 µM against Human KLK1, above 40 µM against Factor XIIa and 0.002 µM on Human plasma kallikrein.

On to `Cc1cnn(Cc2ccc(Cn3cc(C(=O)NCc4ccc(CN)c(F)c4C)c(C(F)(F)F)n3)cc2)c1` [Example 119, 1-[4-(4-Methyl-pyrazol-1-ylmethyl)-benzyl]-3-trifluoromethyl-1H-pyrazole-4-carboxylic acid 4-aminomethyl-3-fluoro-2-methyl-benzylamide], for which the IC50 against Human KLK1 was above 10 µM; on Factor XIIa, above 40 µM; on Human plasma kallikrein it was 0.009 µM.

Regarding `NCc1ccc(CNC(=O)c2cn(Cc3ccccc3)nc2-c2ccccc2)cc1` [Example 84, 1-Benzyl-3-phenyl-1H-pyrazole-4-carboxylic acid 4-aminomethyl-benzylamide], the IC50 at Human KLK1 was above 10 µM; against plasmin, above 40 µM; at Factor XIIa, above 10 µM; at trypsin it was above 40 µM; on thrombin, above 40 µM; at Human plasma kallikrein, 8.38 µM.

Values taken from patent US9670157B2, “Benzylamine derivatives” (KALVISTA PHARMACEUTICALS LIMITED, priority 2013, dated 2017).
